Source: patent US4477659A, “Cephalosporin compound” (Asahi Kasei Kogyo Kabushiki Kaisha, priority 1981, dated 1984)
In brackets after ≈: the same amount, converted by molar mass.

Columns and labels:
E. Coli W3630 = assay: MIC (Table 4); format: cell-based; details: 10^8 cells/ml; unit assumed
From the text: (§1) | MIC Value (10^8 cells/ml)

Staph. aureus ATCC 6538p = assay: MIC (Table 4); format: cell-based; details: 10^8 cells/ml; unit assumed
From the text: as §1

Staph. aureus MS 27 = assay: MIC (Table 4); format: cell-based; details: 10^8 cells/ml; unit assumed
From the text: as §1

E. Coli W3630 ps 3 = assay: MIC (Table 4); format: cell-based; details: 10^8 cells/ml; unit assumed
From the text: as §1

[1] = system: Salm enteritidis Gaertner; assay: MIC (Table 4); format: cell-based; details: 10^8 cells/ml; unit assumed
From the text: as §1

E. Coli NIHJ-JC2 = assay: MIC (Table 4); format: cell-based; details: 10^8 cells/ml; unit assumed
From the text: as §1

[2] = system: Klebs. pneumoniae ATCC 10031; assay: MIC (Table 4); format: cell-based; details: 10^8 cells/ml; unit assumed
From the text: as §1

Staph. aureus 0003 = assay: MIC (Table 4); format: cell-based; details: 10^8 cells/ml; unit assumed
From the text: as §1

[3] = Absorption test, oral, rats, solution in buffer pH 7 (Example 16); format: in vivo, Male Wistar rats; details: blood, 50 mg/kg oral, rat, average of 6, read-out: Blood Concentration of the Compound
Method: The absorption test of the compounds as obtained in Examples 1-11 were tested by the following method.
Male Wistar rats weighing 180-250 g were fed with only water overnight. The next day the rats were orally administered with 50 mg/kg of a test compound which was dissolved in a buffer solution having pH of 7. The concentration of the compound in blood of the tested animals (one group consisting of 6 animals) was measured 0.5, 1, 2 and 4 hours after the administration by Bioassay method by using Bacillus subtilis ATCC 6633 strain as an indicator bacteria. In the measurement, an ordinary culture medium was employed, and the preparation of the standard solution and other method were carried out in according to Japanese Antibiotical Pharmaceutical Standards. Further, the concentration of the compound in blood was also measured by high performance liquid chromatography. The blood concentration shown below was an average value of each animal group.

`CC(=O)OCC1=C(C(=O)O)N2C(=O)[C@@H](NC(=O)CSc3nc(C[C@H](N)C(=O)O)c[nH]3)[C@H]2SC1` [Example 1, 7-β-[4-(2'-amino-2'-carboxy)ethylimidazol-2-yl-thioacetamido]-3-acetoxymethyl-3-cephem-4-carboxylic acid] gave an MIC Value (E. Coli W3630) of 100 µg/mL (≈ 200 µM), an MIC Value (Staph. aureus ATCC 6538p) of 3.1 µg/mL (≈ 6.21 µM) and an MIC Value (Staph. aureus MS 27) of 12.5 µg/mL (≈ 25 µM). It also gave an MIC Value (E. Coli W3630 ps 3) of 100 µg/mL (≈ 200 µM), an MIC Value [1] of 100 µg/mL (≈ 200 µM) and an MIC Value (E. Coli NIHJ-JC2) of 50 µg/mL (≈ 100 µM). For the same compound, the MIC Value [2] was 25 µg/mL (≈ 50 µM), the MIC Value (Staph. aureus 0003) was 12.5 µg/mL (≈ 25 µM) and the concentration at 0.5 h ([3]; 0.5 hr.) was 3600 ng/mL. For the same compound, the concentration at 1 h ([3]; 1 hr.) was 1600 ng/mL, the concentration at 2 h ([3]; 2 hrs.) was 800 ng/mL and the concentration at 4 h ([3]; 4 hrs.) was 500 ng/mL.
